Data from patent publication US8466143B2, “Azepine derivatives as pharmaceutical agents” (Exelixis, Inc., priority 2003, dated 2013).

Molecular target: T1, full length human farnesoid X receptor (Homo sapiens, UniProt Q96RI1)
T1 construct: CMX-farnesoid X receptor (full length human farnesoid X receptor); expressed in transfected cells; host or cells: CV-1 African Green Monkey Kidney cells
T1 sequence (Q96RI1 1-472 isoform Q96RI1-2): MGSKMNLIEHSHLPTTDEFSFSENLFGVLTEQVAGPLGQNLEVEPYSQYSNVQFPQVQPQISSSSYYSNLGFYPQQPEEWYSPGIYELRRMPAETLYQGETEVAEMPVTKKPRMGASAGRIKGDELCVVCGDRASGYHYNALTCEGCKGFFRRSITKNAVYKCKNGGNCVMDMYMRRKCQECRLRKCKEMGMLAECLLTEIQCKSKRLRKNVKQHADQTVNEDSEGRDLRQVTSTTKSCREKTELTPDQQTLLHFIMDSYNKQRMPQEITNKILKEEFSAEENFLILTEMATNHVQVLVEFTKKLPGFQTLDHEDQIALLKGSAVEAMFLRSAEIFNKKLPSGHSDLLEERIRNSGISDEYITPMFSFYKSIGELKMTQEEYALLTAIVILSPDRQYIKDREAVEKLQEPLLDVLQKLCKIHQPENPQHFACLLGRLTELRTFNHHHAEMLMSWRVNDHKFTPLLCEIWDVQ
T1 sequence (P19793 1-462 partner): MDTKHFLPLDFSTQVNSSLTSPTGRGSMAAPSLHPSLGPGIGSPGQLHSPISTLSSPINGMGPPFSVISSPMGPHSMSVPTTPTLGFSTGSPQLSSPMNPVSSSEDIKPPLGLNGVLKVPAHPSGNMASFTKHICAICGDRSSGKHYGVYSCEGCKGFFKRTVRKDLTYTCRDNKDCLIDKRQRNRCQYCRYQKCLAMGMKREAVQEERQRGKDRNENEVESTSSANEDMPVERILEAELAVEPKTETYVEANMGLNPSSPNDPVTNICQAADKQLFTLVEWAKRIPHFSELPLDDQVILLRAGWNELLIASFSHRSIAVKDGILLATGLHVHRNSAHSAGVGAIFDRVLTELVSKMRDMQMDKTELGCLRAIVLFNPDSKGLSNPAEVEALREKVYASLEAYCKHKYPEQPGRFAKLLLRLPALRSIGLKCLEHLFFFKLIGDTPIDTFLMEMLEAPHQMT
Assay: farnesoid X receptor/ECREx7 co-transfection assay
Assay type: cell-based
Details: CV-1 cells, agonist mode
Experimental: The basic co-transfection protocol for measuring the farnesoid X receptor activity is as follows. CV-1 African Green Monkey Kidney cells were plated 24 hours before transfection to achieve approximately 70-80 percent confluency. Cells were transfected with the following expression vectors, CMX-farnesoid X receptor (full length human farnesoid X receptor), CMX-RXRα (full length human RXR), Luc12 ((ECREx7-Tk-Luciferase) luciferase reporter gene construct. (See WO 00/76523, Venkateswaran et al., (2000) J. Biol. Chem. 275 14700-14707). A CMX-β-Galactosidase expression vector was used as a transfection control. The transfection reagent used was DOTAP (Boehringer Mannheim). Cells were incubated with the DOTAP/DNA mixture for 5 hours after which the cells were harvested and plated onto either 96 well or 384 well plates containing the appropriate concentration of test compound. The assay was allowed to continue for an additional 18-20 hours, after which the cells were lysed, with lysis buffer (1% triton X 100, 10% glycerol, 5 mM Dithiothreitol, 1 mM EGTA, 25 mM Tricine, pH 7.8) and the luciferase activity measured in the presence of Luciferase assay buffer (0.73 mM ATP, 22.3 mM Tricine, 0.11 mM EGTA, 0.55 mM Luciferin, 0.15 mM Coenzyme A, 0.5 mM HEPES, 10 mM Magnesium sulphate) on a standard luminomter plate reader (PE Biosystems, NorthStar Reader), using recommended operating instructions and conditions.
Both the farnesoid X receptor/ECREx7 co-transfection assay (Example 10) and the TR-FRET assay (Example 9) can be used to establish the EC50/IC50 values for potency and percent activity or inhibition for efficacy. Efficacy defines the activity of a compound relative to a high control (chenodeoxycholic acid, CDCA) or a low control (DMSO/vehicle). The dose response curves are generated from an 8 point curve with concentrations differing by ½ LOG units. Each point represents the average of 4 wells of data from a 384 well plate. The curve for the data is generated by using the equation: Y=Bottom+(Top-Bottom)/(1+10^((Log EC50−X)*HillSlope))
The EC50/IC50 is therefore defined as the concentration at which an agonist or antagonist elicits a response that is half way between the Top (maximum) and Bottom (baseline) values. The EC50/IC50 values represented are the averages of at least 3 independent experiments. The determination of the relative efficacy or % control for an agonist is by comparison to the maximum response achieved by chenodeoxycholic acid that is measured individually in each dose response experiment.
For the antagonist assay, CDCA is added to each well of a 384 well plate to elicit a response. The % inhibition for each antagonist is therefore a measurement of the inhibition of the activity of CDCA. In this example, 100% inhibition would indicate that the activity of CDCA has been reduced to baseline levels, defined as the activity of the assay in the presence of DMSO only.

| Structure (SMILES) | EC50 |
| --- | --- |
| CCOC(=O)C1CN(C(=O)c2ccc(F)cc2)CC(C)(C)c2c1[nH]c1c2CCCC1 (centres unmarked) [3-(4-Fluoro-benzoyl)-1,1-dimethyl-1,2,3,4,5,6,7,8,9,10-decahydro-azepino[4,5-b]indole-5-carboxylic acid ethyl ester] | ≤ 0.1 µM |
| CCOC(=O)c1cc2c([nH]1)C(C(=O)OC(C)C)=CN(C(=O)c1ccc(F)c(F)c1)CC2(C)C [6-(3,4-Difluoro-benzoyl)-4,4-dimethyl-1,4,5,6-tetrahydro-pyrrolo[2,3-d]azepine-2,8-dicarboxylic acid 2-ethyl ester 8-isopropyl ester] | ≤ 0.1 µM |
| CCOC(=O)C1=CN(C(=O)c2ccc(F)c(F)c2)CC(C)(C)c2cc(C(=O)OCC)[nH]c21 [6-(3,4-Difluoro-benzoyl)-4,4-dimethyl-1,4,5,6-tetrahydro-pyrrolo[2,3-d]azepine-2,8-dicarboxylic acid diethyl ester] | ≤ 0.1 µM |

Other lines, results leading:

| EC50 | Structure (SMILES) |
| --- | --- |
| ≤ 0.1 µM | CCOC(=O)C1=CN(C(=O)c2ccc(F)cc2)CC(C)(C)c2c1[nH]c1c2CCCC1 [3-(4-Fluoro-benzoyl)-1,1-dimethyl-1,2,3,6,7,8,9,10-octahydro-azepino[4,5-b]indole-5-carboxylic acid ethyl ester] |
| ≤ 1 µM | CCOC(=O)C1=CN(C(=O)c2ccc(F)cc2)CCc2c1[nH]c1c2CCCC1 [3-(4-Fluoro-benzoyl)-1,2,3,6,7,8,9,10-octahydro-azepino[4,5-b]indole-5-carboxylic acid ethyl ester] |
| ≤ 0.1 µM | CCOC(=O)c1cc2c(n1C)C(C(=O)OC(C)C)=CN(C(=O)c1ccc(F)c(F)c1)CC2(C)C [6-(3,4-Difluoro-benzoyl)-1,4,4-trimethyl-1,4,5,6-tetrahydro-pyrrolo[2,3-d]azepine-2,8-dicarboxylic acid 2-ethyl ester 8-isopropyl ester] |
| ≤ 0.1 µM | CCOC(=O)C1=CN(C(=O)c2ccc(F)c(F)c2)CC(C)(C)c2ccsc21 [6-(3,4-Difluoro-benzoyl)-4,4-dimethyl-5,6-dihydro-4H-thieno[2,3-d]azepine-8-carboxylic acid ethyl ester] |

Same assay, conditions: relative to maximum response of chenodeoxycholic acid (CDCA)

| efficacy | Structure (SMILES) |
| --- | --- |
| greater than 100% | CCOC(=O)C1=CN(C(=O)c2ccc(F)cc2)CCc2c1[nH]c1c2CCCC1 [3-(4-Fluoro-benzoyl)-1,2,3,6,7,8,9,10-octahydro-azepino[4,5-b]indole-5-carboxylic acid ethyl ester] |
